≈ marks a conversion by molar mass, not a printed value. Where a name gives a salt, the structure may show the parent alone.
What was measured:
[1] = Thermal properties by TGA and DSC; assay type: physicochemical
Source text: Form A's basic thermal properties were studied by thermogravimetric analysis (TGA) and differential scanning calorimetry (DSC) and are as follows:

[2] = Equilibration of free base forms with solvents, XRPD; assay type: physicochemical; conditions: thirteen solvents, one day, 25° C.
Source text: The solid part was investigated by XRPD.

[3] = physchem; conditions: aqueous buffer solution, pH 1, simulated gastric fluid, thermodynamic from solid
[4] = Hygroscopicity (water uptake); assay type: physicochemical; conditions: 25° C. up to 80% r.h.
[5] = physchem; conditions: tetrahydrofuran/water (1:1), 25 °C, aqueous with cosolvent or surfactant or cyclodextrin, thermodynamic from solid
[6] = Wetting with granulating solvent, XRPD; assay type: physicochemical; conditions: dried under vacuum
Source text: The material is vortexed between each addition. Then the material is dried under vacuum to <2% or less and evaluated for form and degree of crystallinity by XRPD or DSC.

[7] = Stability studies on storage; assay type: physicochemical; conditions: storage at various relative humidities
[8] = Intrinsic dissolution rate (rotating disk); assay type: physicochemical; conditions: for Intrinsic dissolution rate: 37° C., 200 rpm
Protocol: Intrinsic Dissolution Rate (IDR): Dissolution rate measurements were performed at 37° C. using the rotating disk method (VanKell Instrument). A single rotation speed of 200 rpm was used. For IDR in 0.1N HCl, an 800 mL volume, and for IDR in water, a 200 mL volume were used. The solution was continuously pumped through a UV measuring cell and recycled to the dissolution vessel.
The measurements were carried out on a VanKel instrument using a Cary 100 photometer.

[9] = Solubility by gravimetric techniques at different temperatures, residue by XRPD
[10] = Compression with a hydraulic press, XRPD; assay type: physicochemical; conditions: 5 minutes at 10 tons, room temperature
[11] = pH of 1% solution or suspension in water; assay type: physicochemical; conditions: 1% in water; listed as Hydrochloride monohydrate (form B)
[12] = Equilibration of hydrochloride forms A, B and C with solvents, XRPD; assay type: physicochemical
Source text: Then the solutions were filtered and the solid part investigated by XRPD.

[13] = Form conversion on exposure to solvent vapor, air, moisture or room conditions; assay type: physicochemical; conditions: in the presence of ethanol
[14] = Equilibration of hydrochloride form B with solvents (approximate solubility by gravimetry, form by XRPD); conditions: for Solubility: equilibrated at least 20 hours
[15] = 0.1N HCl, 50° C., after 24 hours

In the case of `Cc1cn(-c2cc(NC(=O)c3ccc(C)c(Nc4nccc(-c5cccnc5)n4)c3)cc(C(F)(F)F)c2)cn1` [Form A of the free base], the Decomposition temperature [1] is reported as over 300 °C, the “form transition on equilibration” value [2] is reported as “No form transitions occurred” and the Solubility [3] is reported as over 200 µg/mL. For the same compound, the hygroscopicity [4] was “slightly hygroscopic”, the maximum water uptake [4] was “less than 2%” and the Solubility [5] was 1780 µg/mL (≈ 3.36 mM).

In the case of `Cc1cn(-c2cc(NC(=O)c3ccc(C)c(Nc4nccc(-c5cccnc5)n4)c3)cc(C(F)(F)F)c2)cn1` [Form B of the hydrochloride salt], the “XRPD results after granulation” value ([6]; granulating solvent Ethanol) is reported as “No change”, the “XRPD results after granulation” value ([6]; granulating solvent Water) is reported as “No change” and the “form transition after storage” value [7] is reported as “No form transitions were observed”. For the same compound, the Intrinsic dissolution rate ([8]; Water, listed as Hydrochloride monohydrate (form B)) was 0.0024 mg min^−1cm^−2, the “Intrinsic Dissolution Rate value” ([8]; dissolution medium HCl 0.0001 N) was 0.0010 mg/min/cm^2 and the “Intrinsic Dissolution Rate value” ([8]; dissolution medium HCl 0.001 N) was 0.0045 mg/min/cm^2. The “Intrinsic Dissolution Rate value” ([8]; dissolution medium HCl 0.01 N) was 0.0224 mg/min/cm^2, the “Intrinsic Dissolution Rate value” ([8]; dissolution medium HCl 0.1 N) was 0.1003 mg/min/cm^2 and the “Intrinsic Dissolution Rate value” ([8]; dissolution medium Water) was 0.0001 mg/min/cm^2. For the same compound, the Intrinsic dissolution rate ([8]; pH 1 (0.1 N HCl)) was 0.17 mg min^−1cm^−2, the Solubility ([9]; 0.0001N HCl, 25° C., after 24 hours) was 470 µg/mL and the Solubility ([9]; 0.0001N HCl, 50° C., after 24 hours) was 1320 µg/mL. For the same compound, the Solubility ([9]; 0.001N HCl, 25° C., after 24 hours) was 700 µg/mL, the Solubility ([9]; 0.001N HCl, 50° C., after 24 hours) was 1340 µg/mL and the Solubility ([9]; 0.01N HCl, 25° C., after 24 hours) was 690 µg/mL. For the same compound, the Solubility ([9]; 0.01N HCl, 50° C., after 24 hours) was 1440 µg/mL, the Solubility ([9]; 0.1N HCl, 25° C., after 24 hours) was 2360 µg/mL and the Solubility [9, 15] was 6620 µg/mL. For the same compound, the “XRPD (form of the solid)” value [9, 15] was “B + A”, the Solubility ([9]; Methanol, 25° C., after 24 hours) was 14370 µg/mL and the Solubility ([9]; Methanol, 50° C., after 24 hours) was 52110 µg/mL. The Solubility ([9]; Methanol/Water (95/5) v/v, 20° C., 10 minutes) was 13640 µg/mL, the Solubility ([9]; Methanol/Water (95/5) v/v, 20° C., 1 hour) was 13430 µg/mL and the Solubility ([9]; Methanol/Water (95/5) v/v, 20° C., 24 hours) was 13010 µg/mL. The Solubility ([9]; Methanol/Water (95/5) v/v, 45° C., 10 minutes) was 34490 µg/mL, the Solubility ([9]; Methanol/Water (95/5) v/v, 45° C., 1 hour) was 38180 µg/mL and the Solubility ([9]; Methanol/Water (95/5) v/v, 45° C., 24 hours) was 41700 µg/mL. It also gave a Solubility ([9]; Methanol/Water (95/5) v/v, −10° C., 10 minutes) of 9420 µg/mL, a Solubility ([9]; Methanol/Water (95/5) v/v, −10° C., 1 hour) of 6650 µg/mL and a Solubility ([9]; Methanol/Water (95/5) v/v, −10° C., 24 hours) of 4850 µg/mL. The Solubility ([9]; Methanol/Water (99.5/0.5) v/v, 20° C., 10 minutes) was 12900 µg/mL, the Solubility ([9]; Methanol/Water (99.5/0.5) v/v, 20° C., 1 hour) was 13780 µg/mL and the Solubility ([9]; Methanol/Water (99.5/0.5) v/v, 20° C., 24 hours) was 12210 µg/mL. It also gave a Solubility ([9]; Methanol/Water (99.5/0.5) v/v, 45° C., 10 minutes) of 33290 µg/mL, a Solubility ([9]; Methanol/Water (99.5/0.5) v/v, 45° C., 1 hour) of 39390 µg/mL and a Solubility ([9]; Methanol/Water (99.5/0.5) v/v, 45° C., 24 hours) of 40400 µg/mL. For the same compound, the Solubility ([9]; Methanol/Water (99.5/0.5) v/v, −10° C., 10 minutes) was 7620 µg/mL, the Solubility ([9]; Methanol/Water (99.5/0.5) v/v, −10° C., 1 hour) was 5630 µg/mL and the Solubility ([9]; Methanol/Water (99.5/0.5) v/v, −10° C., 24 hours) was 4000 µg/mL. The Solubility ([9]; Water, 25° C., after 24 hours) was 1280 µg/mL, the Solubility ([9]; Water, 50° C., after 24 hours) was 1400 µg/mL and the “change of crystalline modification (by XRPD) after compression” value [10] was “no change of crystalline modification”. The “pH of 1% solution or suspension in water” value [11] was 2.53, the “form transition on equilibration” value ([12]; 10 different solvents (ethanol, methanol, water, ethanol/water 99:1, methanol/water 99:1 and 99.3:0.7, methanol/HCl 0.1N, diethylether, hexane, tetrahydrofuran), one day, 25° C.) was “No form transitions occurred” and the “form transition on equilibration” value ([12]; ethanol, 50° C., 2 days) was “transitioned to a mixture of forms A and B”. For the same compound, the form conversion [13] was “converts to form A”, the Solubility ([14]; Acetonitrile, 25° C.) was 0.3 mg/g and the Solubility ([14]; Acetonitrile, 50° C.) was 2.1 mg/g. For the same compound, the Solubility ([14]; Acetonitrile-water 1:1, 25° C.) was 10.3 mg/g, the Solubility ([14]; DMSO, 50° C.) was over 27.5 mg/g and the Solubility ([14]; Ethanol (96%), 25° C.) was 3.9 mg/g. It also gave a Solubility ([14]; Ethanol (96%), 50° C.) of 22.4 mg/g, a Solubility ([14]; Ethanol, 50° C.) of 26.5 mg/g and a Solubility ([14]; Ethanol-water 1:1, 50° C.) of 17.2 mg/g. The Solubility ([14]; Ethyl acetate, 25° C.) was 0.3 mg/g, the Solubility ([14]; Ethyl acetate, 50° C.) was 3.0 mg/g and the Solubility ([14]; Methanol, 25° C.) was 16.3 mg/g. The “Form (XRPD) after equilibration” value ([14]; Methanol, 50° C., at least 20 hours) was “Solvate (as wet cake - dries to B)”, the Solubility ([14]; Methanol, 50° C.) was over 27.5 mg/g and the Solubility ([14]; Propan-2-ol, 25° C.) was 1.5 mg/g. It also gave a Solubility ([14]; Propan-2-ol, 50° C.) of 4.8 mg/g, a Solubility ([14]; Tetrahydrofuran, 25° C.) of 5.8 mg/g and a Solubility ([14]; Tetrahydrofuran-water 1:1, 25° C.) of 12.2 mg/g. It also gave a Solubility ([14]; Toluene, 25° C.) of 1.3 mg/g and a Solubility ([14]; Toluene, 50° C.) of 5.6 mg/g.

— patent US8829015B2 (Novartis AG, priority 2005, dated 2014)
